SMILES strings stand for the structures.

Series [1] can be described thus: Phase I first-in-human study: safety, tolerability and PK of single and multiple doses in healthy volunteers. It counts as in vivo. The following applies: for AUC(0-t): human, estimated from AUC0-∞ at single dose of 125 mg in phase 1 study Part 3. The method, then: The study was conducted in 3 parts: single-ascending doses (Part 1A), multiple-ascending doses (Part 2), and formulation assessment (Part 1B and Part 3).

Series [2] can be described thus: Phase 1 open-label single-dose fixed-sequence study: solid dispersion oral suspension vs crystalline freebase tablet, healthy participants. It counts as in vivo, human. The note with it: amorphous vs corresponding crystalline preparation. The text has this: Each participant received both formulations in 2 separate dosing periods.
The median tmax was longer for the tablet compared with the oral suspension. The geometric mean t1/2 was similar between formulations. […] Between-participant CV for AUC (0-tlast), AUC (0-∞), and Cmax was higher for the tablet compared with the oral suspension.

A short description of series [3]: 6-month repeat-dose toxicity study in rats. It counts as in vivo. The following applies: rat, in vivo, po, 1000 mg/kg/day.
The test system of series [4] is rats. Nature of the series: 6-month repeat-dose toxicity study in rats. It counts as in vivo.
Series [5] is described as follows: Rabbit embryofetal development study. Type of series: in vivo. The following applies: female, rabbit, in vivo, po; plasma toxicokinetics on Gestational Day 19, 120 mg/kg/day; read-out: AUC0-24 at rabbit EFD NOEL.
Series [6] has as its system rabbits. In words: Rabbit embryofetal development study. It counts as in vivo.
Series [7] addresses T1, CYP2C8 (Homo sapiens, UniProt P10632).
T1 sequence (P10632 1-490): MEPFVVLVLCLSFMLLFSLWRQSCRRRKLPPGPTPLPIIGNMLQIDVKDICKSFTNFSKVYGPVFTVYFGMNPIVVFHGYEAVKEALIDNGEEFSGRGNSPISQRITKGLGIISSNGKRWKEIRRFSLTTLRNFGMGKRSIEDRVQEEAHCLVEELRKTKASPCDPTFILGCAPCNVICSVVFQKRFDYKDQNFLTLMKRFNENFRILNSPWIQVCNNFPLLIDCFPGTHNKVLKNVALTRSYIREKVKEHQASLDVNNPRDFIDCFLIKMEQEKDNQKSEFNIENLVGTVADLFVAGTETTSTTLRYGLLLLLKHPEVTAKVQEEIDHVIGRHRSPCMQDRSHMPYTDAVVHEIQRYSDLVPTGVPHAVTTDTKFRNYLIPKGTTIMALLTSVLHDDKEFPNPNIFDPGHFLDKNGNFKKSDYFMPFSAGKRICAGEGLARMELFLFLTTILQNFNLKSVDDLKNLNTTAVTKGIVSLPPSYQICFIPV
Nature of the series: In vitro drug-drug interaction studies: CYP2C8 inhibition. Type of series: in vitro ADME. The note with it: based upon in vitro studies.

In series [8] the test system is CYP3A. In words: In vitro drug-drug interaction studies: CYP3A inhibition. Type of series: in vitro ADME. The note with it: based upon in vitro studies.
Series [9] concerns CYP3A5. Nature of the series: In vitro drug-drug interaction studies: CYP3A5 induction. The note with it: based upon in vitro studies. It counts as in vitro ADME.
The target of series [10] is P-gp (Homo sapiens, UniProt P08183). Nature of the series: In vitro drug-drug interaction studies: P-gp transporter inhibition. Type of series: in vitro ADME. The following applies: based upon in vitro studies.
Series [11] has as its target T2, OATP1B3 (Homo sapiens, UniProt Q9NPD5).
T2 sequence (Q9NPD5 1-702): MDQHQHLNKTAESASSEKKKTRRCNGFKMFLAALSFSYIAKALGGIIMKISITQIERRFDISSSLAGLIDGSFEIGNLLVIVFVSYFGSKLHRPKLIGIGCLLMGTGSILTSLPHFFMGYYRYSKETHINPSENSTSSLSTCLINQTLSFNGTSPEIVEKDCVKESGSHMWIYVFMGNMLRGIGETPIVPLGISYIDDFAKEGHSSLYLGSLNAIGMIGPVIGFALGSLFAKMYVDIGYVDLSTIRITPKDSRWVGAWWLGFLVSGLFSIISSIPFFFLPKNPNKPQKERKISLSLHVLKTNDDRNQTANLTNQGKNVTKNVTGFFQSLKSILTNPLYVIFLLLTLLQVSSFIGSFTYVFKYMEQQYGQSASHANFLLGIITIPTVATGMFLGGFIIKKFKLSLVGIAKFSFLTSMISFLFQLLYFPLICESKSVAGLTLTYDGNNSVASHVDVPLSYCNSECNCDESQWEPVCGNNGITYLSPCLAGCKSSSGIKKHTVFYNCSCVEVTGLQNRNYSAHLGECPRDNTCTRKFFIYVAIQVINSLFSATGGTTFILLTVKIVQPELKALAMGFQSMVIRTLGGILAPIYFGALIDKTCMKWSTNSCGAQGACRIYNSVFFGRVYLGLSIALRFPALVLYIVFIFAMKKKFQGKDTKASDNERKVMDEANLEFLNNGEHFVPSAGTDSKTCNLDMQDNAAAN
In words: In vitro drug-drug interaction studies: OATP1B3 transporter inhibition. Type of series: in vitro ADME. The following applies: based upon in vitro studies.

Series [12] concerns CYP3A. In words: Preliminary in vitro CYP3A induction data. It counts as in vitro ADME. The text has this:
Investigators should be aware of participants' concomitant use of CYP3A substrates.

For series [13] the following is noted: Yan et al. ASCPT 2021 poster, cited from earlier work.
Where [14] appears, read: AUC in animals/(predicted) AUC in humans.

Chain of P-gp (P08183 whole entry): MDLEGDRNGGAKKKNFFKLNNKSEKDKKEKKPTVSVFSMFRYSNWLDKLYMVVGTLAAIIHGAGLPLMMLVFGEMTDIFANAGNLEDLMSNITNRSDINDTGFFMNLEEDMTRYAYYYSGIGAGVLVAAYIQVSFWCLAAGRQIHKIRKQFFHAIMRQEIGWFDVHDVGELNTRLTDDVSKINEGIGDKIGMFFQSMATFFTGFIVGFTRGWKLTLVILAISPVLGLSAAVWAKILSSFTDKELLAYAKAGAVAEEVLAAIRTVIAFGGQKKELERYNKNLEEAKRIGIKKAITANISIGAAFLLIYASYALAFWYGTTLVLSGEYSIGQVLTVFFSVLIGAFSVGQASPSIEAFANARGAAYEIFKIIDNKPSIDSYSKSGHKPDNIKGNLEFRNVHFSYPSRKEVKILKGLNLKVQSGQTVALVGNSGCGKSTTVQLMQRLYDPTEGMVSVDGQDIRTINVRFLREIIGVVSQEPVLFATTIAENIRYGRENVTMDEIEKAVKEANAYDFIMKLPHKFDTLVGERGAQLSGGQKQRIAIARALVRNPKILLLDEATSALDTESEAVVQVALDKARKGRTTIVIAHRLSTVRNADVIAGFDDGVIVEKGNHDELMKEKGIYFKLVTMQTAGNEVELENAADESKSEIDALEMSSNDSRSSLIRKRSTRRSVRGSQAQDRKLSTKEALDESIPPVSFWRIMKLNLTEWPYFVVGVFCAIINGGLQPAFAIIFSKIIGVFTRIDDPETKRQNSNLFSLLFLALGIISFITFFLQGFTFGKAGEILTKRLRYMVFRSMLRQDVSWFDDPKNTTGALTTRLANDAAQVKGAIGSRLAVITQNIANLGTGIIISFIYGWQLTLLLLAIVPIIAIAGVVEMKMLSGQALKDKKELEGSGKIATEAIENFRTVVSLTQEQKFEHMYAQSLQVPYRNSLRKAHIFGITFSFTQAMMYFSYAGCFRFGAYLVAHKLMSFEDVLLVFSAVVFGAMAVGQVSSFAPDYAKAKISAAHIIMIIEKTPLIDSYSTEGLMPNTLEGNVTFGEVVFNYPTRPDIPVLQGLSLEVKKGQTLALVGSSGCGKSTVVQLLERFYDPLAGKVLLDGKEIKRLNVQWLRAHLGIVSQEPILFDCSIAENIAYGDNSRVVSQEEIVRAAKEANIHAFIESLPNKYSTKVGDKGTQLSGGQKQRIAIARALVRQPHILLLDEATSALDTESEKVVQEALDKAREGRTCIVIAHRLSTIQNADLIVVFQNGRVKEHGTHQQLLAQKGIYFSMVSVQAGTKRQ

As a reminder, the half-life is the time needed for the level to fall by half in the phase considered. Read a high half-life as slow loss. As to `CN1C(=O)[C@@H](NC(=O)c2n[nH]c(Cc3ccccc3)n2)COc2ccc(C#CC(C)(C)O)cc21` [Compound I, (S)-5-benzyl-N-(7-(3-hydroxy-3-methylbut-1-yn-1-yl)-5-methyl-4-oxo-2,3,4,5-tetrahydrobenzo[b][1,4]oxazepin-3-yl)-1H-1,2,4-triazole-3-carboxamide], the Exposure versus dose entry in series [1] (dose range of 12 to 1000 mg) is recorded as “increased in a proportional manner”. In addition, the AUC(0-t) in [1] (plasma, oral, 0.7 mg/kg/day, read-out: AUC0-24, human dose 50 mg) is 16 µg·h/mL; in [1] (plasma, oral, 1.8 mg/kg/day, read-out: AUC0-24, human dose 125 mg) it was 40.1 µg·h/mL; in [3] it was 1080 µg·h/mL; in [5], 464 µg·h/mL. The compound further yielded a half-life in [1] (plasma, oral, human subjects) of 13 to 15 h. In addition, the “bioavailability, amorphous state (solid dispersion) over crystalline form” value in series [2] is given as “significantly improved”. Besides, the “Margin of Safety, rat NOAEL vs human 50 mg” value in [4] (setting [14]) is given as 67 X. The “Margin of Safety, rat NOAEL vs human 125 mg” value in [4] (setting [14]) is listed as 27 X. Besides, in [4] (toxicology studies up to 6 months), the “toxicology findings in rats” value is recorded as “minimal effects”. Moreover, the “Margin of Safety, rabbit EFD NOEL vs human 50 mg” value in [6] (setting [14]) is given as 29 X. The “Margin of Safety, rabbit EFD NOEL vs human 125 mg” value in [6] (setting [14]) was 12 X. Also, the “developmental and reproductive toxicology outcome, rabbits” value in series [6] (concerns for women of childbearing potential) is on record as “did not reveal any concerns”. In [6] (rabbit embryofetal development study), the “Rabbit EFD NOEL dose” value was found to be 120 mg/kg/day. For the same compound, the “inhibition of drugs metabolized by CYP2C8” value in series [7] was “may inhibit”. The “inhibition of drugs metabolized by CYP3A” value in series [8] was “may inhibit”. The “induction of CYP3A5” value in [9] was “may induce”. Besides, the “inhibition of substrates of P-gp transporter” value in series [10] was “may also inhibit”. Besides, the “inhibition of substrates of OATP1B3 transporter” value in [11] was “may also inhibit”. In addition, in series [12], the “induction of CYP3A” value was “weak inducer”. Also, the safety and tolerability entry in series [13] (following single and multiple doses) is “generally safe, and well tolerated”. In addition, in series [13] (tested dose range up to 1000 mg), the pharmacokinetics linearity entry was “linear pharmacokinetics”.

Values taken from US20250000872A1, “FORMULATIONS AND DOSING REGIMENS FOR RIP1 KINASE INHIBITORS FOR TREATING AUTOIMMUNE AND INFLAMMATORY DISEASES” (Eli Lilly and Company, priority 2023, published 2025).
